# Measured values reported in patent US20120329761A1, “USE OF TIGECYCLINE FOR TREATMENT OF CANCER” (UNIVERSITY HEALTH NETWORK, priority 2010, published 2012).
# What was measured:
# [1] = test system: bacterial protein synthesis; details: cited from earlier work
# [2] = PK study in mice, single dose i.p.; type: in vivo; details: mouse, serum, ip, single dose 50 mg/kg i.p.
# [3] = test system: Cox-1, Cox-2, and Cox-4 mRNA; test: Quantitative RT-PCR of Cox mRNA; type: cell-based, human; details: TEX and primary AML cells, 2.5 μM and 5 μM
# Procedure: (§1) FIG. 4. […] (A) Cells from TEX, OCI-AML2 and two primary AML patients were treated with increasing concentrations (2.5 μM and 5 μM) of tigecycline for 36 and 48 hours of tigecycline. Total proteins were extracted and analyzed by western blotting for Cox-1, Cox-2, Cox-4, grp78, XIAP, actin and tubulin. (B) TEX and AML patient cells were treated with increasing concentrations (2.5 μM and 5 μM) of tigecycline. Cox-1, Cox-2, and Cox-4 mRNA expression relative 18S was determined by quantitative RT-PCR. Data is shown as mean±SD. (C) TEX cells were treated with increasing concentrations of tigecycline and chloramphenicol (CAP) for 72 hours. Complex I, II and IV enzyme activity relative to citrate synthase activity was determined as described in materials and methods. (D) Cells from TEX, primary AML patients, and normal donors were treated with increasing concentrations of tigecycline. Mitochondrial membrane potential (Δψ) was determined by staining cells with JC-1 dye, and flow cytometry analysis (Red/Green ratio). Reactive oxygen species generation (ROS) was determined by staining with h2-DCFDA and Dihydroethidium (DHE).
# [4] = test system: Cox-1, Cox-2, Cox-4, grp78, XIAP; test: Immunoblotting of mitochondrially and cytosolically translated proteins; type: cell-based, human; details: TEX, OCI-AML2 and two AML patients' cells, 2.5 μM and 5 μM
# Procedure: as §1
# Total cell lysates were prepared from cells as described previously^32. […] Protein concentrations were measured by the DC Protein assay. […]
# [5] = cited from earlier work
# [6] = test system: OCI-AML2 human leukemia cells; type: in vivo, SCID mice
# Procedure: FIG. 3. Tigecycline has anti-leukemia activity in vivo. (A, B) Human leukemia (OCI-AML2) were injected subcutaneously into the flank of SCID mice. Seven days after injection, once tumors were palpable, mice were treated with tigecycline (50 mg/kg or 100 mg/kg twice daily by i.p. injection) or vehicle control (n=10 per group). Fourteen days after injection of cells, mice were sacrificed, tumors excised and the volume and mass of the tumors were measured. The tumor mass and the mean volume+SD are shown. Differences in tumor volume and mass were analyzed by an unpaired t-test: * p<0.001. (C) Tumours from two control mice, and three tigecycline-treated mice were excised after 5 days of treatment and total proteins were extracted and analyzed by western blotting for Cox-1, Cox-2, Cox-4, and tubulin. (D) Primary cells from three AML patients were injected intra-femorally into the right femur of female sub-lethally irradiated NOD/SCID mice. Three weeks after injection mice were treated with tigecycline (100 mg/kg by i.p. injection daily) or vehicle control (n=10 per group) for three weeks. Following treatment, human leukemia cell engraftment in the injected right femur was measured by FACS analysis for human CD45^+CD19^−CD33^+ cells. Data represent mean±SD of engrafted human cells. Cells from one patient experiment were used to assess secondary engraftment in a second generation of NOD/SCID mice. Equal numbers of viable leukemia cells from bone marrow of control and tigecycline treated mice were injected into irradiated NOD/SCID mice, which were not treated with tigecycline. Six weeks later, human leukemia cell engraftment in the injected right femur was measured by FACS analysis for human CD45^+CD19^−CD33^+ cells. (* p<0.005, Student's t-test).
# OCI-AML2 human leukemia cells (1×10^6) were injected subcutaneously into the flanks of SCID mice (Ontario Cancer Institute, Toronto, ON). Seven days after injection, once tumours were palpable, mice were treated with tigecycline twice daily (50 mg/kg or 100 mg/kg by i.p. injection) or vehicle control (n=10 per group) for 14 days. Tumor volume (tumor length×width^2×0.5236) was measured three times a week using calipers. Twenty-one days after injection of cells, mice were sacrificed, tumors excised and the volume and mass of the tumors were measured.
# Given the effects of tigecycline as a potential anti-leukemia agent, tigecycline in mouse models of leukemia was evaluated. To evaluate the anti-tumor efficacy of tigecycline in vivo, human OCI-AML2 leukemia cells were injected into the flank of SCID mice. […] Tumor volume and mass were measured over time (FIGS. 3A, B). […]
# [7] = 50 mg/kg or 100 mg/kg twice daily i.p. for 14 days, p<0.001
compound,measurement,setting,value
CN(C)c1cc(NC(=O)CNC(C)(C)C)c(O)c2c1C[C@H]1C[C@H]3[C@H](N(C)C)C(O)=C(C(N)=O)C(=O)[C@@]3(O)C(O)=C1C2=O [tigecycline],"inhibition of bacterial protein synthesis, fold greater than minocycline",[1]; relative to minocycline,3 fold
same,"inhibition of bacterial protein synthesis, fold greater than tetracycline",[1]; relative to tetracycline,20 fold
same,Tmax,[2],~0.5 h
same,half-life,[2],~4.5 h
same,"Cox-1, Cox-2, Cox-4 mRNA expression relative 18S",[3],"preferential increased mRNA expression of mitochondrial-encoded genes Cox-1, Cox-2, over the nuclear-encoded gene Cox-4"
same,expression of nuclear-encoded proteins XIAP or grp78,[4],did not alter
same,expression of Cox subunit proteins,[4]; 36 and 48 hours,"preferential decrease of mitochondrially-translated subunits I and II, over nuclear-translated subunit IV"
same,toxicity,[5]; 50 mg intravenously every 12 hours,without significant toxicity
same,half life in humans,[5]; humans,27 h
same,tolerability,[5]; intravenous doses of 300 mg,well tolerated save for mild nausea
same,expression of cytochrome C oxidase subunits in tumours,"[6]; 50 mg/kg bid for 5 days, western blotting",preferential decreased expression of mitochondrially translated subunits Cox-1 and Cox-2
same,decrease in tumor mass vs vehicle control,[6]; [7],up to 70%
same,decrease in tumor volume vs vehicle control,[6]; [7],up to 70%
same,toxicity in xenograft mice,"[6]; mouse, in vivo",No evidence of toxicity
